Here are results for four compounds from patent US10994016B2, “Graphene oxide mediated cellular delivery of gadolinium-labeled molecules” (Northwestern University, priority 2015, dated 2021).

Where “and” joins values, the source holds several entries; their conditions need not be identical. Equal values may be shown once.

Series [1] is described as follows: Octanol-water partition coefficients. Conditions: errors show SEM; Gd in each layer by ICP-MS. The class given is physicochemical. As for the experimental part:
Approximately 1 mg of each compound was dissolved in 1 mL of a 1:1 mixture of water/1-octanol. After shaking the sample tube vigorously for 30 s, the tube was placed on a rotator for gentle mixing over 6 h. The tube was then removed from the rotator and allowed to sit for 12 h to ensure complete separation of the aqueous and organic phases. […] Once separation was complete, 10 μL was removed from each layer to determine the concentration of Gd by ICP-MS. The partition coefficient was calculated from the following equation: log10P=log10(Co/Cw), where log10 P is the logarithm of the partition coefficient, Co is the concentration of Gd in the 1-octanol layer, and Cw is the concentration of Gd in the water layer.

The subject of another series is HeLa cells. In words: Cellular delivery studies with and without GO co-incubation, HeLa. The class given is cell-based. To be noted: for Gd content (fmol/cell): 188 μM Gd(III), 24 h, replicate values; for Gd content (fmol/cell), Outliers: +1500 nm GO, values removed as outliers (Chauvenet's criterion, * experimenter judgment). As for the experimental part:
ICP-MS Samples were prepared in 15-mL conical tubes by adding ACS reagent grade nitric acid (70%), followed by incubation at 70° C. overnight to allow for complete sample digestion. The effectiveness of this digestion protocol was previously validated for GO. After incubation, a multi-element internal standard (containing Bi, Ho, In, Li, Sc, Tb, and Y, Inorganic Ventures, Christiansburg, Va.) and milli-Q water (18.2 MΩ·cm) were added to produce a final sample of 3% (v/v) nitric acid and 5 ng/mL internal standard.
ICP-MS was performed on a computer-controlled (Plasmalab software) Thermo X series II ICP-MS (Thermo Fisher Scientific, Waltham, Mass., USA) operating in standard mode equipped with an ESI SC-2 autosampler (Omaha, Nebr., USA). Each sample was acquired using 1 survey run (10 sweeps) and 3 main (peak jumping) runs (100 sweeps). The isotopes selected for analysis were Gd with In and Ho isotopes selected as internal standards for data interpolation. Instrument performance is optimized daily through an autotune followed by verification via a performance report (passing manufacturer specifications). Instrument calibration was accomplished by preparing individual-element Gd standards (Inorganic Ventures, Christiansburg, Va., USA) using concentrations of 0.78125, 1.5625, 3.125, 6.25, 12.50, 25.00, 50.00, 100.0, and 200.0 ng/mL containing 3.0% nitric acid (v/v) and 5.0 ng/mL of multi-element internal standard.
Dulbecco's modified phosphate buffered saline (DPBS), media, and dissociation reagents were purchased from Life Technologies (Carlsbad, Calif.). CorningBrand® cell culture consumables (flasks, plates, etc.) and sera were purchased from VWR Scientific (Radnor, Pa.). HeLa cells (ATCC® CCL-2™) and KB cells (ATCC® CCL-17™) were purchased from the American Type Culture Collection (ATCC, Manassas, Va.) and cultured in phenol red-free minimum essential media (MEM) supplemented with 10% fetal bovine serum (FBS). Prior to all experiments, cells were plated and allowed to incubate for 24 hours before dosing. Cells were harvested with 0.25% TrypLE for 5 minutes at 37° C. in a 5.0% CO2 incubator. For sterilization, all Gd(III)-labeled molecules were filtered with 0.2 μm sterile filters prior to concentration determination and storage at 4° C. GO was used as prepared without further sterilization. […] Cells were grown in a humidified incubator operating at 37° C. and 5.0% CO2.
Cell counting was conducted using a Guava EasyCyte Mini Personal Cell Analyzer (EMD Millipore, Billerica, Mass.). After cell harvesting, an aliquot (50 μL) of the cell suspensions was mixed with Guava ViaCount reagent (150 μL) and allowed to stain at room temperature for at least 5 minutes. The dilution factor of 4 was determined based upon optimum machine performance (20-150 cells/μL). After vortexing for 10 sec, stained cells were counted using a Guava EasyCyte Mini Personal Cell Analyzer (PCA) using the ViaCount software module. For each sample, 1000 events were acquired. Gating of live/dead and cell/debris classifications were performed manually by the operator.
Cellular delivery studies were performed with HeLa and KB cells. HeLa and KB were plated at a cell density of approximately 25,000 and 50,000 cells per well, respectively, in a 24-well plate as counted by a hemocytometer. Stock solutions of 1-14 (1 mM), 150 nm GO (100 μg/mL), and 1500 nm GO (100 μg/mL) were prepared using sterile Milli-Q water. Prior to dosing, 80 μL ([…]) of each GO (150 nm and 1500 nm) and 80 μL (80 nmol) of each Gd(III)-labeled molecule (1-14) were mixed and allowed to adsorb for at least 15 minutes. 150 μL Gd(III)-GO solutions were added to 250 μL media to give a final concentration of 188 μM Gd and 18.8 μg/mL GO. Cells were incubated with the mixture of Gd(III)-labeled molecules and GO for […]. To harvest, cells were rinsed in-plate three times with 500 μL PBS and trypsinized using 100 μL 0.25% TrypLE. […]

For series [2] the following is noted: incubation concentration of 100 mM; cited from earlier work.
The mark [3] stands for this setting: +150 nm GO co-incubation, 18.8 μg/mL GO.
The mark [4] stands for this setting: +1500 nm GO co-incubation, 18.8 μg/mL GO.
Setting [5] is: molecule alone, without GO, 24-well plate.

In the case of `O=C([O-])CN(CCN(CC(=O)[O-])CC(=O)[O-])CCN(CC(=O)[O-])CC(=O)[O-].[Gd+3]` [Molecule 11], the “Water-Octanol LogP” value in series [1] is on record as −3.80 ± 0.29. Besides, the “Gd content (fmol/cell)” value in the series with HeLa cells (setting [3]) was 2.36 fmol/cell and 2.49 fmol/cell and 4.37 fmol/cell and 4.24 fmol/cell and 5.87 fmol/cell and 2.95 fmol/cell and 2.73 fmol/cell and 2.85 fmol/cell; in the series with HeLa cells (setting [4]), 5.16 fmol/cell and 5.75 fmol/cell and 4.01 fmol/cell and 3.75 fmol/cell and 3.78 fmol/cell and 3.36 fmol/cell; in the series with HeLa cells (setting [5]), 0.34 fmol/cell and 0.30 fmol/cell and 0.54 fmol/cell and 0.82 fmol/cell and 0.51 fmol/cell and 0.72 fmol/cell and 0.61 fmol/cell (2×).

For `CC(O)CN1CCN(CC(=O)[O-])CCN(CC(=O)[O-])CCN(CC(=O)[O-])CC1.[Gd+3]` (stereo not drawn) [Molecule 13, [Gd(HP-DO3A)(H2O)]], in series [2], the “Highest cellular labeling reported to date” value is recorded as 31 fmol Gd/cell.

On to `CC(O)CN1CCN(CC(=O)[O-])CCN(CC(=O)[O-])CCN(CC(=O)[O-])CC1.[Gd+3]` (stereo not drawn) [Molecule 13], for which the “Water-Octanol LogP” value in series [1] was −3.59 ± 0.16. Further, the “Gd content (fmol/cell)” value was 1.09 fmol/cell and 1.47 fmol/cell and 1.02 fmol/cell with HeLa cells (setting [3]); 1.36 fmol/cell and 1.84 fmol/cell and 0.82 fmol/cell and 1.59 fmol/cell and 1.47 fmol/cell with HeLa cells (setting [4]); 0.51 fmol/cell and 0.42 fmol/cell and 0.61 fmol/cell in the series with HeLa cells (setting [5]). Besides, in the series on HeLa cells, the “Gd content (fmol/cell), Outliers” value was 0.53* fmol/cell and 0.55* fmol/cell.

For the compound `O=C([O-])CN1CCN(CC(=O)[O-])CCN(CC(=O)[O-])CCN(CC(=O)[O-])CC1.[Gd+3]` [Molecule 14], the “Water-Octanol LogP” value in series [1] is −3.62 ± 0.23. The “Gd content (fmol/cell)” value with HeLa cells (setting [3]) was 0.35 fmol/cell and 0.26 fmol/cell and 0.21 fmol/cell; with HeLa cells (setting [4]), 0.34 fmol/cell and 0.21 fmol/cell and 0.18 fmol/cell and 0.31 fmol/cell; with HeLa cells (setting [5]), 0.22 fmol/cell and 0.31 fmol/cell and 0.20 fmol/cell. In the series with HeLa cells, the “Gd content (fmol/cell), Outliers” value was 4.32 fmol/cell.
